We go through five compounds from ChEMBL document CHEMBL5727469, “Inhibitors of the renal outer medullary potassium channel” (2019).

This assay addresses T1, ATP-sensitive inward rectifier potassium channel 1 (Homo sapiens, UniProt P48048).
T1 sequence (P48048 whole entry): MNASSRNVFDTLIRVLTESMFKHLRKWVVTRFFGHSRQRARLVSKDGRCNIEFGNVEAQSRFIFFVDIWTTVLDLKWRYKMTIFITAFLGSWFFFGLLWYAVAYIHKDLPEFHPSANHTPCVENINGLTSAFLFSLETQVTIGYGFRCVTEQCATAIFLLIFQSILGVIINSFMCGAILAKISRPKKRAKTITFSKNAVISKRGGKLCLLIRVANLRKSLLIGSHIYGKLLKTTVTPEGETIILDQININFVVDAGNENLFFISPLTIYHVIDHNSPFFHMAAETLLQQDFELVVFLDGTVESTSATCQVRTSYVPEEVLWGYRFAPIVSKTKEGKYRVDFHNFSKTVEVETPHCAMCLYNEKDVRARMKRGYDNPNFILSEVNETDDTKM
As to the kind of experiment: Thallium Flux Assay: 1. Seed HEK-hKir1.1 cells (50 μl at 20,000 cells/well) in 384-well PDL coated Microplates2. Allow cells to adhere overnight in humidified 37° C./10% CO2 incubator3. Completely remove cell growth media from microplate and replace with 25 μl loading buffer4. Incubate Microplate at room temperature, protected form light, for 90 min5. Remove loading buffer and replace with 25 μl 1× Assay Buffer±test compound.6. Incubate microplate at room temperature, protected from light, for 30 min7. At FLIPR-Tetra 384: Add stimulant (Thallium/Potassium) solution to microplate and monitor fluorescence. Excitation=400 nm, Emission=460 & 580 nm. Collect data for ˜10 min.Data Calculation—The fluorescence intensity of wells containing 3 μM of a standard control ROMK inhibitor of the present invention is used to define the ROMK-sensitive component of thallium flux. Fluorescence in the presence of test compounds is normalized to control values to provide % fluorescence change. IC50 values represent the concentration of compound that inhibits 50% of the ROMK thallium flux signal.
Consider `CC1=C(N2CCOC3(CCN(CC(O)c4ccc(-n5cnnn5)nc4C)CC3)C2)CCC1=O` (stereo not given), for which the IC50 (as a rule, the point on the concentration scale where inhibition reaches its midpoint) is 157 nM. Next, `CC1=C(N2CCOC3(CCN(C[C@H](O)c4ccc5c(c4C)COC5=O)CC3)C2)CCC1=O`: 796 nM.

For the compound `CC1=C(N2CCOC3(CCN(C[C@H](O)c4ccc(-n5cnnn5)nc4)CC3)C2)CCC1=O`, the IC50 is 167 nM. As to `CC1=C(N2CCOC3(CCN(CC(O)c4ccc(-n5cnnn5)cc4C)CC3)C2)CCC1=O` (stereo not given), the IC50 was 285 nM.

With `CC1=C(N2CCC3(CCN(CC(O)c4ccc(-n5cnnn5)nc4C)CC3)C2=O)CCC1=O` (single isomer, unassigned), the IC50 was 842 nM.
